{
  "source": "paper PMC5665883",
  "about": "“Antithrombotic properties of JJ1, a potent and novel thrombin inhibitor” (Scientific Reports, 2017)",
  "key": {"thrombin": {"target": "T1, thrombin (Homo sapiens, UniProt P00734)", "T1 construct": "thrombin solution (150 μL, 10 U/mL) was added; purchased Haematologic Technologies (Essex Junction, VT)", "test": "Thrombin activity assay (amidolytic activity, S-2238)", "format": "biochemical", "conditions": "α-Thrombin, chromogenic substrate; read-out: IC50, inhibition of amidolytic activity of thrombin (converted)", "procedure": "Following a 2-min incubation at 37 °C, thrombin solution (150 μL, 10 U/mL) was added, followed by incubation at 37 °C for 1 min. A solution of the thrombin substrate, S-2238, (150 μL, 1.5 mM) solution was subsequently added and the absorbance at 405 nm was monitored for 120 s using a spectrophotometer (TECAN, Männedorf, Switzerland)."}, "Ex vivo PT clotting time": {"test": "Ex vivo PT clotting time", "format": "in vivo, C57BL/6 mice", "conditions": "mice, i.v.; for PT: 1 h after administration", "protocol": "(§1) The aPTT and PT were determined using a Thrombotimer (Behnk Elektronik, Norderstedt, Germany) in accordance with the manufacturer’s instructions and as previously described. Briefly, citrated normal human plasma (90 μL) was mixed with 10 μL JJ1 and incubated for 1 min at 37 °C. Subsequently, the aPTT assay reagent (100 μL) was added, the plasma sample was incubated for an additional 1 min at 37 °C, 20 mM CaCl2 (100 μL) was added, and the clotting times were recorded. For the PT assays, citrated normal human plasma (90 μL) was mixed with 10 μL JJ1 stock solution and was incubated for 1 min at 37 °C. The PT assay reagent (200 μL), which had been pre-incubated for 10 min at 37 °C, was subsequently added and the clotting time was recorded. The PT results were expressed in seconds and as International Normalized Ratios (INR): INR = (PT sample/PT control)^ISI, where ISI = international sensitivity index. The aPTT results were also expressed in seconds. All experimental protocols (KNUH 2012-01-010) were approved by the Institutional Review Board of Kyungpook National University Hospitals (Daegu, Republic of Korea).\nMale C57BL/6 mice were fasted overnight. Each compound was dissolved in 0.5% DMSO and administered by i.v. injection. One hour after administration, arterial blood samples (0.1 mL) were collected in 3.8% sodium citrate (1:10, v/v) for the ex vivo aPTT and PT determination. The clotting times were determined as described above."}, "human plasma [1]": {"system": "human plasma", "test": "In vitro PT clotting time", "format": "biochemical", "conditions": "at the maximum antithrombotic dose"}, "[2]": {"test": "Pharmacokinetics after i.v. injection", "format": "in vivo", "conditions": "mouse, plasma, iv, male C57BL/6 mice, 2 mg/kg, fasting", "protocol": "The penile veins of male C57BL/6 mice were injected with 2 mg/kg JJ1. Approximately 50 μL of blood was obtained from the tail vein immediately before and at 5, 15, 30, 60, and 180 min after injection; 80 μL acetonitrile and internal standard solution (reserpine) were then added to these samples, and plasma samples (10 μL) were prepared by centrifugation of the blood at 13,000 rpm for 15 min at 4 °C. An aliquot (2 μL) of the supernatant was then injected into an HPLC column. The pharmacokinetic parameters were determined using the standard non-compartmental method. The area under the curve for serum was calculated using the log linear trapezoidal method on WinNonlin (version 2.0; Scientific Consulting, KY, USA). The samples were analyzed using an Accela^TM LC system coupled to a TSQ Vantage triple quadrupole mass spectrometer (Thermo Fisher Scientific Inc., USA) equipped with a HESI-II Spray source. For the LC analysis, an ACE® 5C18, 3 μm (2.1 × 50 mm) column was used. The mobile phases were (A) LC-grade® water containing 0.1% formic acid, and (B) LC grade acetonitrile containing 0.1% formic acid (B). This initial composition was increased to 95% solvent (B) for 3 minutes. The gradient program for HPLC used a flow rate of […]. […]"}, "[3]": {"test": "Organ injury markers (biochemical safety parameters)", "format": "in vivo, C57BL/6 mice", "parameters": "BUN: unit not given here", "protocol": "The safety of JJ1 is another promising feature. Animal safety markers such as aspartate transaminase (AST) and alanine transaminase (ALT) (markers of hepatic injury) and creatinine and blood urea nitrogen (BUN) (markers of renal injury) were assessed with blood samples obtained at 48 h after JJ1 injection. […] Serum levels of AST, ALT, BUN, and creatinine were measured using commercial assay kits (Pointe Scientific, Linclon Park, MI)."}, "[4]": {"test": "In vivo tail bleeding time", "parameters": "species or system C57BL/6 mice", "conditions": "mice, i.v. injection, 1 h after administration", "protocol": "Tail bleeding times were measured by using the method of Dejana et al.[63],[64]. Briefly, C57BL/6 mice were fasted overnight prior to the experiments. One hour after the i.v. administration of JJ1, the tails of the mice were transected at 2 mm from their tips. The bleeding time was defined as the time elapsed until the bleeding stopped. Bleeding times exceeding 15 min were recorded as lasting for 15 min."}, "human plasma [5]": {"system": "human plasma", "test": "In vitro PT clotting time", "format": "biochemical", "conditions": "for PT / PT (INR): in vitro", "protocol": "as §1"}, "[6]": {"conditions": "male C57BL/6 mice, 3.06 μg/mouse, 48 h after injection"}},
  "note": "Marks after values point to notes of the source that are not given here.",
  "data": [
    {"smiles": "c1ccc2c(NC3CCCC3)nc(Nc3ccncc3)nc2c1", "note": "[JJ1]", "values": [
      {"measurement": "IC50", "setting": "thrombin", "result": 150, "unit": "nM"},
      {"measurement": "PT (INR)", "setting": "Ex vivo PT clotting time; 0.31 μg/mouse", "result": 1.08, "unit": "INR"},
      {"measurement": "PT", "setting": "Ex vivo PT clotting time; 0.31 μg/mouse", "result": "12.4 ± 0.5", "unit": "s"},
      {"measurement": "PT (INR)", "setting": "Ex vivo PT clotting time; 0.61 μg/mouse", "result": 2.37, "unit": "INR"},
      {"measurement": "PT", "setting": "Ex vivo PT clotting time; 0.61 μg/mouse", "result": "17.2 ± 1.4", "unit": "s"},
      {"measurement": "PT (INR)", "setting": "Ex vivo PT clotting time; 1.23 μg/mouse", "result": "4.42* INR"},
      {"measurement": "PT", "setting": "Ex vivo PT clotting time; 1.23 μg/mouse", "result": "22.3 ± 0.6", "unit": "s"},
      {"measurement": "PT (INR)", "setting": "Ex vivo PT clotting time; 3.06 μg/mouse", "result": "6.88* INR"},
      {"measurement": "PT", "setting": "Ex vivo PT clotting time; 3.06 μg/mouse", "result": "26.8 ± 0.4", "unit": "s"},
      {"measurement": "Prolongation of PT", "setting": "human plasma [1]", "result": 2.22, "unit": "fold"},
      {"measurement": "AUC", "setting": "[2]", "result": 6100, "unit": "ng·h/mL"},
      {"measurement": "half-life", "setting": "[2]", "result": 3.1, "unit": "h"},
      {"measurement": "Plasma levels of AST, ALT, BUN, and creatinine compared to DMSO-treated animals", "setting": "[3]; after 2 days", "result": "no significant differences"},
      {"measurement": "ALT", "setting": "[3]; [6]", "result": "7.5 ± 0.63", "unit": "IU/L"},
      {"measurement": "AST", "setting": "[3]; [6]", "result": "15.1 ± 1.29", "unit": "IU/L"},
      {"measurement": "BUN", "setting": "[3]; [6]", "result": "17.1 ± 1.31"},
      {"measurement": "Creatinine", "setting": "[3]; [6]", "result": "0.139 ± 0.012", "unit": "mg/dL"},
      {"measurement": "Tail bleeding time", "setting": "[4]; 0.31 μg/mouse", "result": "30.6 ± 0.8", "unit": "s"},
      {"measurement": "Tail bleeding time", "setting": "[4]; 0.61 μg/mouse", "result": "37.2 ± 1.0", "unit": "s"},
      {"measurement": "Tail bleeding time", "setting": "[4]; 1.23 μg/mouse", "result": "44.8 ± 1.2", "unit": "s"},
      {"measurement": "Tail bleeding time", "setting": "[4]; 3.06 μg/mouse", "result": "52.2 ± 1.4", "unit": "s"},
      {"measurement": "Concentration that doubled the clotting time, PT assay", "setting": "human plasma [5]", "result": 1.61, "unit": "µM"},
      {"measurement": "PT", "setting": "human plasma [5]; 0.05 μM", "result": "12.1 ± 0.2", "unit": "s"},
      {"measurement": "PT (INR)", "setting": "human plasma [5]; 0.05 μM", "result": 1.04, "unit": "INR"},
      {"measurement": "PT", "setting": "human plasma [5]; 0.1 μM", "result": "11.7 ± 0.4", "unit": "s"},
      {"measurement": "PT (INR)", "setting": "human plasma [5]; 0.1 μM", "result": 0.96, "unit": "INR"},
      {"measurement": "PT", "setting": "human plasma [5]; 0.2 μM", "result": "12.7 ± 0.5", "unit": "s"},
      {"measurement": "PT (INR)", "setting": "human plasma [5]; 0.2 μM", "result": 1.17, "unit": "INR"},
      {"measurement": "PT", "setting": "human plasma [5]; 0.5 μM", "result": "15.4 ± 0.4", "unit": "s"},
      {"measurement": "PT (INR)", "setting": "human plasma [5]; 0.5 μM", "result": "1.86* INR"},
      {"measurement": "PT", "setting": "human plasma [5]; 1.0 μM", "result": "21.4 ± 0.5", "unit": "s"},
      {"measurement": "PT (INR)", "setting": "human plasma [5]; 1.0 μM", "result": "4.09* INR"},
      {"measurement": "PT", "setting": "human plasma [5]; 2.0 μM", "result": "25.8 ± 0.3", "unit": "s"},
      {"measurement": "PT (INR)", "setting": "human plasma [5]; 2.0 μM", "result": "6.41* INR"},
      {"measurement": "PT", "setting": "human plasma [5]; 5.0 μM", "result": "26.5 ± 0.4", "unit": "s"},
      {"measurement": "PT (INR)", "setting": "human plasma [5]; 5.0 μM", "result": "6.83* INR"}
    ]}
  ]
}
